{
  "source": "BindingDB's records for doi:10.1016/j.bioorg.2015.02.002",
  "about": "(Bezmialem Vakif University, 2015)",
  "key": {"Acetylcholinesterase": {"target": "Acetylcholinesterase (Electrophorus electricus, UniProt O42275)", "sequence (O42275 whole entry)": "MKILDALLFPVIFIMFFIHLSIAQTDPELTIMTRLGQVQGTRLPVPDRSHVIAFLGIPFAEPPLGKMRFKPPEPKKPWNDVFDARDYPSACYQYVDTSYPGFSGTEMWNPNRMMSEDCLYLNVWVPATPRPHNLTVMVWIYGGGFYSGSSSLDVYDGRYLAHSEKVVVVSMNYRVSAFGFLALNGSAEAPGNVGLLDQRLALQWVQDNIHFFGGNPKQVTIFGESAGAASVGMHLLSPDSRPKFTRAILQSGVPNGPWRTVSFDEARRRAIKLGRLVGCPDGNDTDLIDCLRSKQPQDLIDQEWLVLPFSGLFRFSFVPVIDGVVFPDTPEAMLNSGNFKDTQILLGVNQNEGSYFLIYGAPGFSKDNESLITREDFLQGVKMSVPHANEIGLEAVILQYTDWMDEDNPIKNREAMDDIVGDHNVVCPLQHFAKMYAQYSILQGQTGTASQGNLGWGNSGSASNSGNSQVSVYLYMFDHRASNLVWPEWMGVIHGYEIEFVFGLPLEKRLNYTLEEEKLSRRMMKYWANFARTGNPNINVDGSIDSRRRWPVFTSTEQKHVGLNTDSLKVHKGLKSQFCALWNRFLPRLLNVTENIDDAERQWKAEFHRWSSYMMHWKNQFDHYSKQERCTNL", "assay": "Anticholinesterase Activity Assays", "conditions": "pH 8", "description": "(§1) The substrates of the reaction were acetylthiocholine iodide and butyrylthiocholine iodide. 5,5'-dithio-bis(2-nitrobenzoic) acid (DTNB) was used for the measurement of the anticholinesterase activity. The solutions of the samples and galantamine in n-propanol were prepared at concentration of 4000 µg/mL. […] 10 µL of DTNB solution was prepared by adding 2.0 mL of pH 7.0 and 4.0 mL of pH 8.0 phosphate buffers to a mixture of 1.0 mL of 16 mg/mL DTNB and 7.5 mg/mL NaHCO3 in pH 7.0 phosphate buffers. The reaction was initiated by the addition of 10 µL (7.1 mM) acetylthiocholine iodide (or 0.79 mM butyrylthiocholine iodide). Propyl alcohol was used as a solvent to controls. The hydrolysis of these substrates was monitored at 412 nm."}, "[1]": {"target": "Carboxylic ester hydrolase (Equus caballus, UniProt Q9N1N9)", "sequence (Q9N1N9 whole entry)": "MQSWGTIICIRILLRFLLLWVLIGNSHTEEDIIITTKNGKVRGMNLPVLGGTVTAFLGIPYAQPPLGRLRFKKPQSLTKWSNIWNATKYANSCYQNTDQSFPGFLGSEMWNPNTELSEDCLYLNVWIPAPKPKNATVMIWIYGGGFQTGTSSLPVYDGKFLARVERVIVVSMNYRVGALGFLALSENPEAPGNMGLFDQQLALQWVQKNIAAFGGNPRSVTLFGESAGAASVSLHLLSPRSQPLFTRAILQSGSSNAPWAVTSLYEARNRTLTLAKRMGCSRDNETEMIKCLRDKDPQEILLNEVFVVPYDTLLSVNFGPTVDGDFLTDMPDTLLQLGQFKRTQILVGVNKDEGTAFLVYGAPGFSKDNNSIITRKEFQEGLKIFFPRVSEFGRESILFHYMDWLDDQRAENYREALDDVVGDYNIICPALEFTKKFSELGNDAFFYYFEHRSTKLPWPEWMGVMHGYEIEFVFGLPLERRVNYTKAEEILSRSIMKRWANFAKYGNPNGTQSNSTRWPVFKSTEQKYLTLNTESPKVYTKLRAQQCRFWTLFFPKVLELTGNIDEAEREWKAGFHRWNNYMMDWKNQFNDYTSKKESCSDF", "assay": "Anticholinesterase Activity Assays", "conditions": "pH 8", "description": "as §1"}},
  "data": [
    {"smiles": "Cc1ccc(NC(=O)Nc2nc(-c3cc4ccccc4oc3=O)cs2)cc1", "note": "[1-(p-tolyl)-3-(4-(2-oxo-2H-chromen-3-yl)thiazol-2-yl)urea (e4)]", "values": [
      {"measurement": "IC50", "setting": "Acetylcholinesterase", "result": 81.5, "unit": "µM"},
      {"measurement": "IC50", "setting": "[1]", "result": 54.8, "unit": "µM"}
    ]},
    {"smiles": "O=C(Nc1ccccc1)Nc1nc(-c2cc3ccccc3oc2=O)cs1", "note": "[1-Phenyl-3-(4-(2-oxo-2H-chromen-3-yl)thiazol-2-yl)urea (e5)]", "values": [
      {"measurement": "IC50", "setting": "Acetylcholinesterase", "result": 73.2, "unit": "µM"},
      {"measurement": "IC50", "setting": "[1]", "result": 74.6, "unit": "µM"}
    ]}
  ]
}
